Laboratory results taken from PubChem BioAssay AID2060890 (Molecular Pharmacology Branch, DTP, NCI, 2025).
Blank lines part the entries; values can stand above or below the compound they belong to.

System: LG0703-F948-PDC complex spheroid viability
Assay: Anticancer human tumor LG0703-F948-PDC patient-derived lung adenocarcinoma cell line growth inhibition [RAS]
Details: for IC50: curve of first compound; for viability, T/C: stronger effect = lower value
How it was run: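 Tumour cells grown as complex spheroids with HUVEC endothelial cells and mesenchymal stem cells, treated with RAS pathway inhibitor combinations. Each agent spans half-log steps from near clinical Cmax, or 10 microM where Cmax is unknown.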

[1] = second compound 0.000949 µM, first compound 0.00316 µM
[2] = second compound 0.000949 µM, first compound 0.01 µM
[3] = second compound 0.000949 µM, first compound 0.0316 µM
[4] = second compound 0.000949 µM, first compound 0.1 µM
[5] = second compound 0.000949 µM, first compound 0.316 µM
[6] = second compound 0.000949 µM, first compound 1 µM
[7] = second compound 0.003 µM, first compound 0.00316 µM
[8] = second compound 0.003 µM, first compound 0.01 µM
[9] = second compound 0.003 µM, first compound 0.0316 µM
[10] = second compound 0.003 µM, first compound 0.1 µM
[11] = second compound 0.003 µM, first compound 0.316 µM
[12] = second compound 0.003 µM, first compound 1 µM
[13] = second compound 0.00949 µM, first compound 0.00316 µM
[14] = second compound 0.00949 µM, first compound 0.01 µM
[15] = second compound 0.00949 µM, first compound 0.0316 µM
[16] = second compound 0.00949 µM, first compound 0.1 µM
[17] = second compound 0.00949 µM, first compound 0.316 µM
[18] = second compound 0.00949 µM, first compound 1 µM
[19] = second compound 0.03 µM, first compound 0.00316 µM
[20] = second compound 0.03 µM, first compound 0.01 µM
[21] = second compound 0.03 µM, first compound 0.0316 µM
[22] = second compound 0.03 µM, first compound 0.1 µM
[23] = second compound 0.03 µM, first compound 0.316 µM
[24] = second compound 0.03 µM, first compound 1 µM
[25] = second compound 0.0949 µM, first compound 0.00316 µM
[26] = second compound 0.0949 µM, first compound 0.01 µM
[27] = second compound 0.0949 µM, first compound 0.0316 µM
[28] = second compound 0.0949 µM, first compound 0.1 µM
[29] = second compound 0.0949 µM, first compound 0.316 µM
[30] = second compound 0.0949 µM, first compound 1 µM
[31] = second compound 0.3 µM, first compound 0.00316 µM
[32] = second compound 0.3 µM, first compound 0.01 µM
[33] = second compound 0.3 µM, first compound 0.0316 µM
[34] = second compound 0.3 µM, first compound 0.1 µM
[35] = second compound 0.3 µM, first compound 0.316 µM
[36] = second compound 0.3 µM, first compound 1 µM
[37] = second compound 0.0316 µM, first compound 0.0316 µM
[38] = second compound 0.0316 µM, first compound 0.1 µM
[39] = second compound 0.0316 µM, first compound 0.316 µM
[40] = second compound 0.0316 µM, first compound 1 µM
[41] = second compound 0.1 µM, first compound 0.0316 µM
[42] = second compound 0.1 µM, first compound 0.1 µM
[43] = second compound 0.1 µM, first compound 0.316 µM
[44] = second compound 0.1 µM, first compound 1 µM
[45] = second compound 0.316 µM, first compound 0.0316 µM
[46] = second compound 0.316 µM, first compound 0.1 µM
[47] = second compound 0.316 µM, first compound 0.316 µM
[48] = second compound 0.316 µM, first compound 1 µM
[49] = second compound 1 µM, first compound 0.0316 µM
[50] = second compound 1 µM, first compound 0.1 µM
[51] = second compound 1 µM, first compound 0.316 µM
[52] = second compound 1 µM, first compound 1 µM
[53] = second compound 3.16 µM, first compound 0.0316 µM
[54] = second compound 3.16 µM, first compound 0.1 µM
[55] = second compound 3.16 µM, first compound 0.316 µM
[56] = second compound 3.16 µM, first compound 1 µM
[57] = second compound 10 µM, first compound 0.0316 µM
[58] = second compound 10 µM, first compound 0.1 µM
[59] = second compound 10 µM, first compound 0.316 µM
[60] = second compound 10 µM, first compound 1 µM
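Further: spheroids exposed to agents for 7 days.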
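Wherever viability, T/C is given: 100% = DMSO vehicle wells.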

IC50 (second compound 0.000949 µM): 79.9 nM | IC50 (second compound 0.003 µM): 63.9 nM | IC50 (second compound 0.00949 µM): 87.3 nM | IC50 (second compound 0.03 µM): 65.1 nM | IC50 (second compound 0.0949 µM): 22.7 nM | IC50 (second compound 0.3 µM): < 3.16 nM
SMILES: O=C(c1ccc(F)c(F)c1Nc1ccc(I)cc1F)N1CC(O)([C@@H]2CCCCN2)C1 + CCn1c(-c2cccnc2C(C)OC)c2c3cc(ccc31)N1CCOC(CC(NC(=O)C(C(C)C)N(C)C(=O)C3(F)CCN(C(=O)C#CC(C)(C)N(C)C)CC3)C(=O)N3CCCC(N3)C(=O)OCC(C)(C)C2)C1
viability, T/C [1]: 93.7% | viability, T/C [2]: 93.3% | viability, T/C [3]: 64.2% | viability, T/C [4]: 48.2% | viability, T/C [5]: 33.4% | viability, T/C [6]: 28.2% | viability, T/C [7]: 97.1% | viability, T/C [8]: 79.8% | viability, T/C [9]: 60.5% | viability, T/C [10]: 40.7% | viability, T/C [11]: 38.4% | viability, T/C [12]: 27.2% | viability, T/C [13]: 87.3% | viability, T/C [14]: 88.3% | viability, T/C [15]: 70% | viability, T/C [16]: 46.9% | viability, T/C [17]: 30.6% | viability, T/C [18]: 21.6% | viability, T/C [19]: 96.2% | viability, T/C [20]: 76.1% | viability, T/C [21]: 60.9% | viability, T/C [22]: 42.7% | viability, T/C [23]: 33.1% | viability, T/C [24]: 21.9% | viability, T/C [25]: 69.4% | viability, T/C [26]: 61% | viability, T/C [27]: 44.2% | viability, T/C [28]: 33.5% | viability, T/C [29]: 20.9% | viability, T/C [30]: 12.4% | viability, T/C [31]: 41.6% | viability, T/C [32]: 35.4% | viability, T/C [33]: 24% | viability, T/C [34]: 13.1% | viability, T/C [35]: 13.1% | viability, T/C [36]: 5.27%

IC50 (second compound 0.0316 µM): 370 nM | IC50 (second compound 0.1 µM): 287 nM | IC50 (second compound 0.316 µM): 181 nM | IC50 (second compound 1 µM): 85.8 nM | IC50 (second compound 3.16 µM): 32.7 nM | IC50 (second compound 10 µM): < 31.6 nM
SMILES: Cc1nc(N2CCC3(CC2)COC(C)C3N)c(CO)nc1Sc1ccnc(N)c1Cl (stereo not drawn) + C#Cc1c(F)ccc2cc(O)cc(-c3ncc4c(N5CC6CCC(C5)N6)nc(OCC56CCCN5CC(F)C6)nc4c3F)c12
viability, T/C [37]: 76.2% | viability, T/C [38]: 73.7% | viability, T/C [39]: 47.9% | viability, T/C [40]: 35.5% | viability, T/C (second compound 0.0316 µM, first compound 3.16 µM): 20.1% | viability, T/C (second compound 0.0316 µM, first compound 10 µM): 10.7% | viability, T/C [41]: 83.4% | viability, T/C [42]: 63% | viability, T/C [43]: 47.4% | viability, T/C [44]: 35.9% | viability, T/C (second compound 0.1 µM, first compound 3.16 µM): 17.6% | viability, T/C (second compound 0.1 µM, first compound 10 µM): 4.95% | viability, T/C [45]: 68.1% | viability, T/C [46]: 60.1% | viability, T/C [47]: 40.3% | viability, T/C [48]: 26.4% | viability, T/C (second compound 0.316 µM, first compound 3.16 µM): 14.4% | viability, T/C (second compound 0.316 µM, first compound 10 µM): 6.94% | viability, T/C [49]: 52.4% | viability, T/C [50]: 51.7% | viability, T/C [51]: 35.8% | viability, T/C [52]: 19.9% | viability, T/C (second compound 1 µM, first compound 3.16 µM): 15.5% | viability, T/C (second compound 1 µM, first compound 10 µM): 7.42% | viability, T/C [53]: 50.3% | viability, T/C [54]: 41.5% | viability, T/C [55]: 28.5% | viability, T/C [56]: 15% | viability, T/C (second compound 3.16 µM, first compound 3.16 µM): 9.6% | viability, T/C (second compound 3.16 µM, first compound 10 µM): 5.81% | viability, T/C [57]: 28.7% | viability, T/C [58]: 29.3% | viability, T/C [59]: 20.1% | viability, T/C [60]: 10.6% | viability, T/C (second compound 10 µM, first compound 3.16 µM): 6.12% | viability, T/C (second compound 10 µM, first compound 10 µM): 2.83%

IC50 (second compound 0.000949 µM): 5.17 nM | IC50 (second compound 0.003 µM): < 3.16 nM | IC50 (second compound 0.00949 µM): < 3.16 nM | IC50 (second compound 0.03 µM): < 3.16 nM | IC50 (second compound 0.0949 µM): < 3.16 nM | IC50 (second compound 0.3 µM): < 3.16 nM
SMILES: C=CC(=O)Nc1cc(Nc2nccc(-c3cn(C)c4ccccc34)n2)c(OC)cc1N(C)CCN(C)C + CCn1c(-c2cc(N3CCN(C)CC3)cnc2C(C)OC)c2c3cc(ccc31)-c1csc(n1)CC(NC(=O)C1CC1C)C(=O)N1CCCC(N1)C(=O)OCC(C)(C)C2
viability, T/C [1]: 62.6% | viability, T/C [2]: 33% | viability, T/C [3]: 17.7% | viability, T/C [4]: 12.9% | viability, T/C [5]: 11.6% | viability, T/C [6]: 9.33% | viability, T/C [7]: 30.5% | viability, T/C [8]: 18.5% | viability, T/C [9]: 12.6% | viability, T/C [10]: 10.9% | viability, T/C [11]: 12.3% | viability, T/C [12]: 8.1% | viability, T/C [13]: 24% | viability, T/C [14]: 14.2% | viability, T/C [15]: 12.6% | viability, T/C [16]: 9.67% | viability, T/C [17]: 8.83% | viability, T/C [18]: 9.91% | viability, T/C [19]: 14.1% | viability, T/C [20]: 13.1% | viability, T/C [21]: 8.75% | viability, T/C [22]: 7.03% | viability, T/C [23]: 6.1% | viability, T/C [24]: 4.67% | viability, T/C [25]: 9.07% | viability, T/C [26]: 7.77% | viability, T/C [27]: 5.22% | viability, T/C [28]: 5.15% | viability, T/C [29]: 5.21% | viability, T/C [30]: 3.75% | viability, T/C [31]: 7.47% | viability, T/C [32]: 9.59% | viability, T/C [33]: 5.92% | viability, T/C [34]: 5.32% | viability, T/C [35]: 4.11% | viability, T/C [36]: 2.62%

IC50 (second compound 0.0316 µM): 6.33 nM | IC50 (second compound 0.1 µM): 8.21 nM | IC50 (second compound 0.316 µM): 6.43 nM | IC50 (second compound 1 µM): 5.01 nM | IC50 (second compound 3.16 µM): 3.85 nM | IC50 (second compound 10 µM): < 3.16 nM
SMILES: Nc1ccn(C2OC(CO)C(O)C2(F)F)c(=O)n1 (stereo not drawn) + C#Cc1c(F)ccc2cc(O)cc(-c3ncc4c(N5CC6CCC(C5)N6)nc(OCC56CCCN5CC(F)C6)nc4c3F)c12
viability, T/C (second compound 0.0316 µM, first compound 0.00316 µM): 68.2% | viability, T/C (second compound 0.0316 µM, first compound 0.01 µM): 37.7% | viability, T/C [37]: 30.6% | viability, T/C [38]: 34.1% | viability, T/C [39]: 25.7% | viability, T/C [40]: 28.3% | viability, T/C (second compound 0.1 µM, first compound 0.00316 µM): 74.2% | viability, T/C (second compound 0.1 µM, first compound 0.01 µM): 45% | viability, T/C [41]: 26.9% | viability, T/C [42]: 27.4% | viability, T/C [43]: 31.9% | viability, T/C [44]: 27% | viability, T/C (second compound 0.316 µM, first compound 0.00316 µM): 63.7% | viability, T/C (second compound 0.316 µM, first compound 0.01 µM): 40.8% | viability, T/C [45]: 31.6% | viability, T/C [46]: 29% | viability, T/C [47]: 26.6% | viability, T/C [48]: 23.5% | viability, T/C (second compound 1 µM, first compound 0.00316 µM): 59% | viability, T/C (second compound 1 µM, first compound 0.01 µM): 35.4% | viability, T/C [49]: 32.7% | viability, T/C [50]: 23.8% | viability, T/C [51]: 26.4% | viability, T/C [52]: 25.6% | viability, T/C (second compound 3.16 µM, first compound 0.00316 µM): 53% | viability, T/C (second compound 3.16 µM, first compound 0.01 µM): 34.7% | viability, T/C [53]: 34.2% | viability, T/C [54]: 30.9% | viability, T/C [55]: 32% | viability, T/C [56]: 26.9% | viability, T/C (second compound 10 µM, first compound 0.00316 µM): 41.5% | viability, T/C (second compound 10 µM, first compound 0.01 µM): 29% | viability, T/C [57]: 32.5% | viability, T/C [58]: 33.5% | viability, T/C [59]: 34% | viability, T/C [60]: 30.7%
